The text below walks through data of patent US20060157667A1, “Method and compositions for controlling release of organic compositions” (Board of Trustees of Michigan State University, priority 2005, published 2006).

This data set is described as follows: Pesticide sorption from water by K- and Ca-SWy-2 smectite clay, batch equilibration method. It counts as physicochemical. The following applies: for pesticide distribution coefficient for sorption by homoionic K-SWy-2: relative concentration of 0.1 (aqueous equilibrium concentration/aqueous solubility), 0.25 M KCl solution; for change in sorption by sorbents derived from Ca-SWy-2 as fK increased from zero to 0.71: Ca-SWy-2 exchanged with KCl; for sorption by K-SWy-2 relative to sorption by Ca-SWy-2: relative aqueous concentration of 0.1. As for the experimental part:
Pesticide sorption from water solution by K— and Ca—SWy-2 mixed with different ratios of aqueous KCl to CaCl2 (kept at a fixed ionic strength of 0.25 M) were measured using a batch equilibration method. A series of initial pesticide concentrations were prepared in the following electrolyte solutions: 0.25 M KCl, 0.24 M KCl/0.003 M CaCl2; 0.20 M KCl/0.016 M CaCl2; 0.15 M KCl/0.033 M CaCl2; 0.10 M KCl/0.05 M CaCl2; 0.05 M KCl/0.067 M CaCl2; 0.01 M KCl/0.08 M CaCl2; and 0.083 M CaCl2. Clays were weighed into glass centrifuge tubes, solute solutions over a range of initial pesticide concentrations were added, and the tubes were closed with Teflon-lined screw caps. The tubes were then shaken reciprocally at 40 rpm for 24 h at room temperature (23±2° C.), followed by centrifugation at 2600 g for 30 min. Previous studies have shown that equilibrium was reached within this period of time (Sheng, G., et al., J. Agri. Food Chem. 49, 2899-2907 (2001); and Sheng, G., et al., Clays Clay Miner. 50, 25-34 (2002)). Supernatants were sampled and subject to analysis for pesticide concentrations using a Perkin-Elmer High Performance Liquid Chromatography (HPLC) system consisting of a Binary 250 LC pump, a Series 200 autosampler and a Series 200 UV-Visible detector. The optimal wavelength was set at 238 nm for dichlobenil, 250 nm for monuron and 248 nm for biphenyl. An Alltech platinum extended polar selectivity C18 column (15 cm by 4.6 mm i.d.) was used for dichlobenil and monuron, and an Alltech adsobosphere C18 column (25 cm by 4.6 mm i.d.) was used for biphenyl. The mobile phase composition was a mixture of methanol and water, and was optimized for each pesticide. Controls consisted of identical pesticide solutions in the corresponding electrolytes, but with no clay present. No changes in solute concentrations were detected in the tubes devoid of clay within the experimental period; therefore, solute mass lost in the supernatant from clay slurries was assumed to be sorbed by clay. The amount of pesticide sorbed was calculated from the difference between the initial and equilibrium solute concentration in aqueous solution.
The actual population of exchangeable K^+ and Ca^2+ associated with the clay was measured in a separate experiment using the BaCl2 extraction method (Rhoades, J. D., Method of Soil Analysis part 2: Chemical and Microbiological Properties; 2nd ed., American Society of Agronomy: Madison, Wis. 149-158 (1982)). The same amounts of clays and electrolyte solutions used in the sorption studies were added into glass centrifuge tubes, the tubes were shaken for 24 h at room temperature then centrifuged at 2600 g for 30 min. Aqueous supernatants were removed, diluted and analyzed by a Perkin-Elmer 3110 atomic absorption spectrophotometer (AAS). The mass of K^+ and Ca^2+ remaining in the residual supernatant was accounted for by assuming their concentrations to be the same as that measured in the bulk supernatant; residual supernatant that could not be removed was determined gravimetrically. The clay pellets were extracted three times using 0.1 M BaCl2, then washed three times with Milli-Q water. The supernatants from the water washing were combined with the supernatants from the BaCl2 extraction step, diluted and analyzed by AAS. The K^+ and Ca^2+ concentrations were measured using the external standards prepared with the matching matrix background of extraction reagents.
We compared sorption coefficients for clays derived from homoionic Ca—SWy-2 vs. those derived from homoionic K—SWy-2 after the homoionic clays had been treated with different amounts of CaCl2/KCl aqueous solutions. […] Replacement of K^+ from K—SWy-2 by Ca^2+ (from fK=1 to 0.66) manifested gradually diminishing sorption of dichlobenil to ˜40% of that by homoionic K—SWy-2.

The mark [1] stands for this setting: relative aqueous concentration 0.1.

Where “and” joins values, the source holds several entries; their conditions need not be identical. Equal values may be shown once.

For the compound `c1ccc(-c2ccccc2)cc1` [Biphenyl, 1,1′-biphenyl], the “pesticide distribution coefficient for sorption by homoionic K-SWy-2” value (“pesticide distribution coefficient” for short) is reported as 6.4 L/kg. Moreover, the “sorption across variation of K+ fractions on minerals from zero to one” value (relative concentration 0.1, FIG. 4) is reported as “remained nearly constant”.
Turning to `N#Cc1c(Cl)cccc1Cl` [Dichlobenil, 2,6-dichlorobenzonitrile], the “sorption by K-SWy-2 relative to sorption by Ca-SWy-2” value is listed as “approximately 75 times higher” and the “pesticide distribution coefficient” value was 580 L/kg. Under setting [1], the “change in sorption by sorbents derived from Ca-SWy-2 as fK increased from zero to 0.71” value is “increased by approximately four times”. In addition, the “sorption relative to that by homoionic K-SWy-2 after replacement of K+ by Ca2+” value (K-SWy-2 derived clay, fK from 1 to 0.66, relative concentration 0.1) is given as around 40%. Moreover, the “sorption by clay derived from K-SWy-2 (fK=0.66) relative to clay derived from Ca-SWy-2 (fK=0.71)” value (comparable fK, different starting clay) is ~10 times and 8 times.
`CN(C)C(=O)Nc1ccc(Cl)cc1` [Monuron, N′-(4-chlorophenyl)-N,N-dimethylurea]: the “sorption by K-SWy-2 relative to sorption by Ca-SWy-2” value is around 4 times higher and the “pesticide distribution coefficient” value came to 27 L/kg. Further, the “sorption enhancement by Ca-SWy-2 derived sorbents at fK as high as 0.71” value (Ca2+ replaced by K+, sorption isotherms, FIG. 2) is given as “ca. 205”. Under setting [1], the “change in sorption by sorbents derived from Ca-SWy-2 as fK increased from zero to 0.71” value was “No apparent enhancement” and the “change in sorption when K-SWy-2 underwent exchange with CaCl2, fK from 1 to 0.81” value is reported as “reduced by about half”.
